Consider 35 compounds from patent US8071797B2 (priority 2008, dated 2011).

The test has as its target T1, HCV polymerase (NS5B570n-Con1) (Hepatitis C virus genotype 1b, UniProt Q9WMX2).
T1 construct: contains a 21 amino acid deletion at the C-terminus relative to the full-length HCV polymerase; 6-histidine (N); made in house; host or cells: E. coli BL21 (DE) pLysS
In words: HCV NS5B RNA polymerase activity assay. It is filed as biochemical, HCV Con1 strain. As to conditions: IC50 NS5B polymerase assay, Table I. On the procedure:
The enzymatic activity of HCV polymerase (NS5B570n-Con1) was measured as the incorporation of radiolabeled nucleotide monophosphates into acid insoluble RNA products. Unincorporated radiolabeled substrate was removed by filtration and scintillant was added to the washed and dried filter plate containing radiolabeled RNA product. The amount of RNA product generated by NS5B570-Con1 at the end of the reaction was directly proportional to the amount of light emitted by the scintillant.
The N-terminal 6-histidine tagged HCV polymerase, derived from HCV Con1 strain, genotype 1b (NS5B570n-Con1) contains a 21 amino acid deletion at the C-terminus relative to the full-length HCV polymerase and was purified from E. coli strain BL21 (DE) pLysS. The construct, containing the coding sequence of HCV NS5B Con1 (GenBank accession number AJ242654) was inserted into the plasmid construct pETI 7b, downstream of a T7 promoter expression cassette and transformed into E. coli. A single colony was grown overnight as a starter culture and later used inoculate 10 L of LB media supplemented with 100 μg/mL ampicillin at 37° C. Protein expression was induced by the addition of 0.25 mM isopropyl-β-D-thiogalactopyranoside (IPTG) when optical density at […] of the culture was between 0.6 and 0.8 and cells were harvested after 16 to 18 h at 30° C. NS5B570n-Con1 was purified to homogeneity using a three-step protocol including subsequent column chromatography on Ni-NTA, SP-Sepharose HP and Superdex 75 resins.
Each 50 μl enzymatic reaction contained 20 nM RNA template derived from the complementary sequence of the Internal Ribosome Entry Site (cIRES), 20 nM NS5B570n-Con1 enzyme, 0.5 μCi of tritiated UTP (Perkin Elmer catalog no. TRK-412; specific activity: 30 to 60 Ci/mmol; stock solution concentration from 7.5×10^-5 M to 20.6×10^-6 M), 1 μM each ATP, CTP, and GTP, 40 mM Tris-HCl pH 8.0, 40 mM NaCl, 4 mM DTT (dithiothreitol), 4 mM MgCl2, and 5 μl of compound serial diluted in DMSO. Reaction mixtures were assembled in 96-well filter plates (cat #MADVN0B, Millipore Co.) and incubated for 2 h at 30° C. Reactions were stopped by addition of 10% final (v/v) trichloroacetic acid and incubated for 40 min at 4° C. Reactions were filtered, washed with 8 reaction volumes of 10% (v/v) trichloroacetic acetic acid, 4 reaction volumes of 70% (v/v) ethanol, air dried, and 25 μl of scintillant (Microscint 20, Perkin-Elmer) was added to each reaction well.
The amount of light emitted from the scintillant was converted to counts per minute (CPM) on a Topcount® plate reader (Perkin-Elmer, Energy Range: Low, Efficiency Mode Normal, Count Time: 1 min, Background Subtract: none, Cross talk reduction: Off).
Data was analyzed in Excel® (Microsoft®) and ActivityBase® (idbsg). The reaction in the absence of enzyme was used to determine the background signal, which was subtracted from the enzymatic reactions. Positive control reactions were performed in the absence of compound, from which the background corrected activity was set as 100% polymerase activity. All data was expressed as a percentage of the positive control. The compound concentration at which the enzyme-catalyzed rate of RNA synthesis was reduced by 50% (IC50) was calculated by fitting
[formula] equation (t) to the data.where “Y” corresponds to the relative enzyme activity (in %), “% Min” is the residual relative activity at saturating compound concentration, “% Max” is the relative maximum enzymatic activity, “X” corresponds to the compound concentration, and “S” is the Hill coefficient (or slope).
Turning to `CCc1cc2c(C(=O)NC)c(-c3ccc(Oc4ccc(F)cc4)cc3)oc2cc1N(C)S(C)(=O)=O` [Compound I-52], the IC50 (in general, the concentration that gives 50% inhibition) was 128 nM.
Consider `CNC(=O)c1c(-c2ccc(Oc3ccc(F)cc3)cc2)oc2cc(N(CCN)S(C)(=O)=O)c(OC)cc12` [Compound I-53], for which inhibition was half-maximal at 250 nM (IC50).
Under `CNC(=O)c1c(-c2ccc(Oc3ccc(F)cc3)cc2)oc2cc(N(CCN)C(C)=O)c(OC)cc12` [Compound I-54] stands 1240 nM; under `CNC(=O)c1c(-c2ccc(Oc3ccc(F)cc3)cc2)oc2cc(N(CCO)S(C)(=O)=O)c(C)cc12` [Compound I-55], 44 nM; under `CNC(=O)c1c(-c2ccc(Oc3ccc(F)cc3)cc2)oc2cc(N(CC3CCOCC3)S(C)(=O)=O)c(C3CC3)cc12` [Compound I-56], 157 nM.
For `CNC(=O)c1c(-c2ccc(Oc3ccc(F)cc3)cc2)oc2cc(N(CCOC)S(C)(=O)=O)c(C3CC3)cc12` [Compound I-57] the value was 110 nM; for `CNC(=O)c1c(-c2ccc(Oc3ccc(F)cc3F)cc2)oc2cc(N(CCO)S(C)(=O)=O)c(C3CC3)cc12` [Compound I-58], 85 nM; for `CNC(=O)c1c(-c2ccc(Oc3ccccc3F)cc2)oc2cc(N(C)S(C)(=O)=O)c(C)cc12` [Compound I-59, 2-[4-(2-Fluoro-phenoxy)-phenyl]-6-(methanesulfonyl-methyl-amino)-5-methyl-benzofuran-3-carboxylic acid methylamide], 93 nM.
In turn, `CNC(=O)c1c(-c2ccc(Oc3ccc(F)cc3)cc2)oc2cc(N(CC3CCOC3)S(C)(=O)=O)c(C3CC3)cc12` (centres unmarked) [Compound I-60] gave an IC50 of 115 nM.
Turning to `CNC(=O)c1c(-c2ccc(Oc3ccccc3F)cc2)oc2cc(N(CCO)S(C)(=O)=O)c(C3CC3)cc12` [Compound I-61], it took 35 nM to reach half-maximal inhibition (IC50).
Under `CNC(=O)c1c(-c2ccc(Nc3ccc(F)cc3)cc2)oc2cc(N(CCO)S(C)(=O)=O)c(C3CC3)cc12` [Compound I-62] stands 13 nM; under `CCCc1cc2c(C(=O)NC)c(-c3ccc(Oc4ccccc4F)cc3)oc2cc1N(CCO)S(C)(=O)=O` [Compound I-65, 2-[4-(2-Fluoro-phenoxy)-phenyl]-6-[(2-hydroxy-ethyl)-methanesulfonyl-amino]-5-propyl-benzofuran-3-carboxylic acid methylamide], 21 nM; under `CNC(=O)c1c(-c2ccc(Oc3ccc(F)cc3)cc2)oc2cc(N(C)S(C)(=O)=O)c(Cl)cc12` [Compound I-66], 29 nM.
Under `CNC(=O)c1c(-c2ccc(Oc3ccc(F)cc3)cc2)oc2cc(N(CC(C)O)S(C)(=O)=O)c(C3CC3)cc12` (centres unmarked) [Compound I-68] stands 26 nM.
For `CNC(=O)c1c(-c2ccc(Oc3ccc(F)cc3)cc2)oc2cc(N(CC3COC3)S(C)(=O)=O)c(C3CC3)cc12` [Compound I-70, 5-Cyclopropyl-2-[4-(4-fluoro-phenoxy)-phenyl]-6-(methanesulfonyl-oxetan-3-ylmethyl-amino)-benzofuran-3-carboxylic acid methylamide] the value was 13 nM; for `CNC(=O)c1c(-c2ccc(Oc3ccc(F)cc3)cc2)oc2cc(N(Cc3ccncc3)S(C)(=O)=O)c(C3CC3)cc12` [Compound I-71], 9 nM.
`CNC(=O)c1c(-c2ccc(Oc3ccc(F)cc3)cc2)oc2cc(N(C3CCOCC3)S(C)(=O)=O)c(C3CC3)cc12` [Compound I-72] yielded an IC50 of 591 nM.
For `CNC(=O)c1c(-c2ccc(Oc3ccc(F)cc3)cc2)oc2cc(N(CC(N)=O)S(C)(=O)=O)c(C3CC3)cc12` [Compound I-73] the value was 56 nM; for `CNC(=O)c1c(-c2ccc(Oc3ccc(F)cc3)cc2)oc2cc(N(C3CNC3)S(C)(=O)=O)c(C3CC3)cc12` [Compound I-75], 300 nM.
Under `CNC(=O)c1c(-c2ccc(Oc3ccc(F)cc3)cc2)oc2cc(N(C3CCNCC3)S(C)(=O)=O)c(C3CC3)cc12` [Compound I-76] stands 376 nM; under `CNC(=O)c1c(-c2ccc(Oc3ccc(F)cc3)cc2)oc2cc(N(CC(C)(C)O)S(C)(=O)=O)c(C3CC3)cc12` [Compound I-78], 55 nM; under `CNC(=O)c1c(-c2ccc(Oc3ccc(F)cc3)cc2)oc2cc(N(CCNC(C)=O)S(C)(=O)=O)c(C3CC3)cc12` [Compound I-79], 68 nM.
For `CNC(=O)c1c(-c2ccc(Oc3ccc(F)cc3)cc2)oc2cc(N(CCNS(C)(=O)=O)S(C)(=O)=O)c(C3CC3)cc12` [Compound I-80] the value was 179 nM.
In the case of `CNC(=O)c1c(-c2ccc(Oc3ccc(F)cc3)cc2)oc2cc(N(CCSC)S(C)(=O)=O)c(C3CC3)cc12` [Compound I-81, 5-Cyclopropyl-2-[4-(4-fluoro-phenoxy)-phenyl]-6-[methanesulfonyl-(2-methylsulfanyl-ethyl)-amino]-benzofuran-3-carboxylic acid methylamide], the IC50 came to 16 nM.
Under `CNC(=O)c1c(-c2ccc(Oc3ccc(F)cc3)cc2)oc2cc(N(C3CCOC3)S(C)(=O)=O)c(C3CC3)cc12` (centres unmarked) [Compound I-84] stands 155 nM.
For `CNC(=O)c1c(-c2ccc(Oc3ccccc3)cc2)oc2cc(-c3c(C)noc3C)c(C3CC3)cc12` [Compound I-85, 5-Cyclopropyl-6-(3,5-dimethyl-isoxazol-4-yl)-2-(4-phenoxy-phenyl)-benzofuran-3-carboxylic acid methylamide] the value was 344 nM; for `CNC(=O)c1c(-c2ccc(Oc3ccccc3)cc2)oc2cc(C(C)=O)c(C3CC3)cc12` [Compound I-86], 362 nM.
Under `CNC(=O)c1c(-c2ccc(Oc3ccc(F)cc3)cc2)oc2cc(N(CC3(C)COC3)S(C)(=O)=O)c(C3CC3)cc12` [Compound I-87] stands 134 nM.
Consider `CNC(=O)c1c(-c2ccc(Oc3ccc(F)cc3)cc2)oc2cc(N(Cc3cncnc3)S(C)(=O)=O)c(C3CC3)cc12` [Compound I-88], for which it took 26 nM to reach half-maximal inhibition (IC50).
Under `CNC(=O)c1c(-c2ccc(Oc3ccccc3)cc2)oc2cc(-c3ccc[nH]3)c(C3CC3)cc12` [Compound I-89, 5-Cyclopropyl-2-(4-phenoxy-phenyl)-6-(1H-pyrrol-2-yl)-benzofuran-3-carboxylic acid methylamide] stands 722 nM; under `CNC(=O)c1c(-c2ccc(Oc3ccccc3)cc2)oc2cc(C3CCCN3)c(C3CC3)cc12` (centres unmarked) [Compound I-90, 5-5-Cyclopropyl-2-(4-phenoxy-phenyl)-6-pyrrolidin-2-yl-benzofuran-3-carboxylic acid methylamideyclopropyl-2-(4-phenoxy-phenyl)-6-pyrrolidin-2-yl-benzofuran-3-carboxylic acid methylamide], 254 nM.
Take `CNC(=O)c1c(-c2ccc(Oc3ccc(F)cc3)cc2)oc2cc(N(C3CCNC3)S(C)(=O)=O)c(C3CC3)cc12` (centres unmarked) [Compound I-91, 5-Cyclopropyl-2-[4-(4-fluoro-phenoxy)-phenyl]-6-(methanesulfonyl-pyrrolidin-3-yl-amino)-benzofuran-3-carboxylic acid methylamide]: the IC50 was determined as 24 nM.
Under `CNC(=O)c1c(-c2ccc(Oc3ccc(F)cc3)cc2)oc2cc(N(CCCCN)S(C)(=O)=O)c(C3CC3)cc12` [Compound I-92] stands 56 nM; under `CNC(=O)c1c(-c2ccc(Oc3ccc(F)cc3)cc2)oc2cc(N(C3CCN(S(C)(=O)=O)C3)S(C)(=O)=O)c(C3CC3)cc12` (centres unmarked) [Compound I-94, 5-cyclopropyl-2-[4-(4-fluoro-phenoxy)-phenyl]-6-[methanesulfonyl-(1-methanesulfonyl-pyrrolidin-3-yl)-amino]-benzofuran-3-carboxylic acid methylamide], 28 nM.
Compound `CNC(=O)c1c(-c2ccc(Oc3ccc(F)cc3)cc2)oc2cc(N(C(C)CN)S(C)(=O)=O)c(C3CC3)cc12` (centres unmarked) [Compound I-95] displayed an IC50 of 60 nM.
